{"source": "patent US20070292387A1", "about": "“TRANSMUCOSAL DELIVERY OF PHARMACEUTICAL ACTIVE SUBSTANCES” (GWANGJU INSTITUTE OF SCIENCE AND TECHNOLOGY, priority 2006, published 2007)", "key": {"B16F10 melanoma cells": {"tested_on": "B16F10 melanoma cells", "assay": "Oral administration in B16F10 melanoma allograft (tumor size, survival)", "assay_type": "in vivo, C57BL6 male mice", "conditions": "oral 25 mg/kg, 5 days on, 2 days off, about 30 days; FIG. 7", "procedure": "B16F10 melanoma cells were subcutaneously transplanted at a cell density of 5×10^6 cells/mice into a dorsal region of C57BL6 male mice (mean body weight: 25 g). […] Experiments were carried out for mouse groups, each consisting of 5 to 6 animals having the tumor, simultaneously with observation of changes. Animals were given oral administration of the drug or physiological saline for about 30 days, starting on day 10 after tumor transplantation. […] The control group was administered physiological saline, paclitaxel and chitosan. In order to confirm the degree of tumor growth, the size of tumor was daily measured using a calibrator. The tumor size was calculated according to the following Equation (2): Tumor volume (mm^3)=(Length×Width^2)/2 (Equation 2).\nThe survival rate of mice was also monitored simultaneously with measurement of the tumor size. When the tumor mass reached a size of more than 8000 mm^3, the animals were euthanized."}, "[1]": {"assay": "Plasma paclitaxel after single oral dose with or without P-gp inhibitor cyclosporine A", "assay_type": "in vivo, ICR mice", "description": "ICR mice (male, 25-30 g) were fasted for 12 hr before dosing. Mice were anesthetized with diethyl ether and administered with a single oral dose of paclitaxel or paclitaxel-chitosan conjugates with or without P-gp inhibitor (cyclosporine A, Sigma, 15 mg/kg) through an oral gavage that was carefully passed down the esophagus into the stomach. The drug solutions were prepared in 10% DMSO solution. The total volume of the administered drug solution was 0.2 ml. Blood (450 μl) was collected from a capillary in the retroorbital plexus and directly mixed with 50 Al of sodium citrate (3.8% solution); the sample was then immediately centrifuged at 3000 rpm at 4° C. for 20 min. The concentrations of paclitaxel in plasma were measured using HPLC after extraction."}, "[2]": {"conditions": "oral, cited from earlier work"}, "Diabetes-induced rats [3]": {"tested_on": "Diabetes-induced rats", "assay": "Bioavailability calculated from degree of blood glucose control (AUC) after oral administration", "assay_type": "in vivo, rat", "conditions": "insulin 1.77 mg/kg, protease inhibitor not added", "description": "(§1) An insulin-chitosan conjugate (a conjugate using chitosan of MW 3000, 6000 or 9000 Da) was dissolved in a citrate buffer solution and then diluted with physiological saline to prepare an insulin-chitosan conjugate solution at an insulin concentration of 100 U/mL. Diabetes-induced rats were fasted for 6 hours, and blood was collected from the tail veins of animals and the blood glucose level was determined. The thus-obtained value was used as an initial value prior to administration of the drug. The experimental animals were given oral administration of the above-prepared insulin-chitosan conjugate solution at a dose of 50 IU/kg using a gastric sonde (50 IU is equivalent to 1.77 mg of insulin). As a control, animals were given oral administration of 50 IU/kg insulin and chitosan of MW 9000 Da in the same manner as above. On time points of 1, 2, 3, and 4 hours after administration of the drug, blood was collected from the tail veins of animals and the blood glucose level was determined. The blood glucose level at each time point was calculated by taking the initial value prior to administration of the drug to be 100%.\nThen, the bioavailability of conjugates were calculated from the degree of blood glucose control (area under curve, AUC) obtained in FIG. 2 after oral administration of each insulin-chitosan conjugate. […] In addition, as a control, known bioavailability of insulin, a protease-chitosan conjugate and a thiolated chitosan-insulin tablet preparation containing glutathione (a reducing agent) (Krauland A H, et al., J. Control Release, 24; 95(3):547-555 (2004)) was compared."}, "Diabetes-induced rats [4]": {"tested_on": "Diabetes-induced rats", "assay": "In vivo oral administration of insulin-chitosan conjugate (blood glucose level)", "set-up": "species or system rat", "conditions": "FIG. 2", "description": "as §1"}}, "note": "Where two headings read alike, the source gives them in different places."}
{"molecule": "CC(=O)O[C@H]1C(=O)[C@@]2(C)[C@H]([C@H](OC(=O)c3ccccc3)[C@]3(O)C[C@H](OC(=O)[C@H](O)[C@@H](NC(=O)c4ccccc4)c4ccccc4)C(C)=C1C3(C)C)[C@]1(OC(C)=O)CO[C@@H]1C[C@@H]2O", "note": "[paclitaxel]", "values": [{"measurement": "tumor size compared to the control group", "setting": "B16F10 melanoma cells", "value": "no significant difference in the tumor size"}, {"measurement": "increase of maximum plasma concentration (Cmax) when coadministrated with cyclosporine A", "setting": "[1]; cyclosporine A 15 mg/kg, FIG. 6a", "value": 9.3, "unit": "fold"}, {"measurement": "Cmax", "setting": "[1]; male, ICR, mouse, plasma, without cyclosporine A, conjugate chitosan MW 6000, read-out: maximum plasma concentration (Cmax) of paclitaxel", "value": "90 ± 20", "unit": "ng/mL"}, {"measurement": "bioavailability of paclitaxel", "setting": "[2]; PTX only", "value": "4-10%"}, {"measurement": "bioavailability of paclitaxel", "setting": "[2]; combined with a P-gp inhibitor such as cyclosporin A or Valspodar", "value": "50-60%"}]}
{"molecule": "Insulin-3K LMWC: insulin-chitosan conjugate using low molecular weight chitosan of MW 3000 Da", "values": [{"measurement": "Bioavailability (%) (SC injection: 100%)", "setting": "Diabetes-induced rats [3]", "value": "1.89 ± 0.32", "unit": "%"}]}
{"molecule": "Insulin-6K LMWC: insulin-6 KDa low molecular weight chitosan conjugate", "values": [{"measurement": "Bioavailability (%) (IV injection: 100%)", "setting": "Diabetes-induced rats [3]", "value": "0.77 ± 0.16", "unit": "%"}, {"measurement": "Bioavailability (%) (SC injection: 100%)", "setting": "Diabetes-induced rats [3]", "value": "2.66 ± 0.38", "unit": "%"}]}
{"molecule": "Insulin-9K LMWC: insulin-chitosan conjugate using low molecular weight chitosan of MW 9000 Da", "values": [{"measurement": "Bioavailability (%) (IV injection: 100%)", "setting": "Diabetes-induced rats [3]", "value": "1.0 ± 0.13", "unit": "%"}, {"measurement": "Bioavailability (%) (SC injection: 100%)", "setting": "Diabetes-induced rats [3]", "value": "3.69 ± 0.29", "unit": "%"}]}
{"molecule": "insulin", "values": [{"measurement": "lowering of the blood glucose levels (in words)", "setting": "Diabetes-induced rats [4]; insulin 50 IU/kg, chitosan of MW 9000 Da", "value": "no lowering of the blood glucose levels"}]}
{"molecule": "insulin-chitosan conjugate: insulin (B29 lysine) bound via -CO-(CH2)2-S-S-(CH2)2-CO- linker to chitosan of MW 3000, 6000 or 9000", "values": [{"measurement": "decrease in the blood glucose level compared to the initial blood glucose level", "setting": "Diabetes-induced rats [4]; 50 IU insulin/kg, 2 hours later", "value": "> 40", "unit": "%"}]}
